Laboratory results: patent US20220056043A1, “NITROGEN-CONTAINING FUSED CYCLIC COMPOUND, PREPARATION METHOD THEREFOR AND USE THEREOF” (SICHUAN KELUN-BIOTECH BIOPHARMACEUTICAL CO., LTD., priority 2019, published 2022)
Blank lines part the entries; values can stand above or below the compound they belong to.

How the values were obtained:
hTLR8 = biological target: T1, hTLR8 (Homo sapiens, UniProt Q9NR97); experiment: Agonistic effect on hTLR8, HEK-Blue hTLR8 cells, alkaline phosphatase secretion; format: cell-based; settings: 16 hours
T1 construct: host or cells: HEK-Blue hTLR8 cells
T1 sequence (Q9NR97 27-1041): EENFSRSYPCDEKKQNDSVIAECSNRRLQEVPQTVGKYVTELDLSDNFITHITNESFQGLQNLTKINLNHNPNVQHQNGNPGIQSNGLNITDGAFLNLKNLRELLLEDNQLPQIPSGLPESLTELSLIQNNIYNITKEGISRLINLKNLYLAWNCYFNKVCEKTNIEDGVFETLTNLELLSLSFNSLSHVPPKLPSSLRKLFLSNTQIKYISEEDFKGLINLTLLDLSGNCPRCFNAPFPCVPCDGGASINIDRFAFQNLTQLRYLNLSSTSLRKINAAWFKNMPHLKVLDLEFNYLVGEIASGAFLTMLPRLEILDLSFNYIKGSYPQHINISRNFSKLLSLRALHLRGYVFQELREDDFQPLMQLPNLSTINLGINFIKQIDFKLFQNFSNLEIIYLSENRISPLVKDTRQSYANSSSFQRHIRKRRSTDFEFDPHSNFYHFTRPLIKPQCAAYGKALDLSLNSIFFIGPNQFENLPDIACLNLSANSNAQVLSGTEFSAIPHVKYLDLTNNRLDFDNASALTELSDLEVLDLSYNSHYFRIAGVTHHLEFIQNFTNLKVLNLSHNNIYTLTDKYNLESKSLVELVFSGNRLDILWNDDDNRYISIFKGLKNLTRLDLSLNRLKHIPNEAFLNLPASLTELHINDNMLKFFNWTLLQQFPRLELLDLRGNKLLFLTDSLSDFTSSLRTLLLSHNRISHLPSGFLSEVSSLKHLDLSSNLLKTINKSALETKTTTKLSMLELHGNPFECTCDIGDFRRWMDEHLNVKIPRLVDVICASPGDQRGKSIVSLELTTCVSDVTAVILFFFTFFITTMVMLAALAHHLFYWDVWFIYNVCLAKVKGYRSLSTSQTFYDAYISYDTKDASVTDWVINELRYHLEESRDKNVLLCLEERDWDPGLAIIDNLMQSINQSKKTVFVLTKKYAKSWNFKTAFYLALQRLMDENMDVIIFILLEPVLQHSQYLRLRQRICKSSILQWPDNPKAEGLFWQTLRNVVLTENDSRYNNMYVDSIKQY
Method: Experimental Example 4: Agonistic Effect of the Compound of the Invention on hTLR8
In this test, the secretion of alkaline phosphatase in HEK-Blue cells was measured to test the activating effect of the compound of the invention on TLR8 signaling pathway, so as to evaluate the specificity of the agonistic effect of the compound on NLRP3 pathway.
Reagents: DMEM (High glucose); FBS (fetal bovine serum) (Gibco); QUANTI-Blue/InvivoGen/rep-qb2
Cells: HEK-Blue™ hTLR8 cells (human TLR 8 cells) (InvivoGen) Experimental Procedures:
1) The HEK-Blue™ hTLR8 cells in a logarithmic growth phase were trypsinized and resuspended in the medium to a concentration of 2×10^6 cells/mL. 50 μL/well of the cell suspension was added to a 96-well plate. An appropriate amount of 10 mM DMSO solution of the compound to be tested was taken and diluted to a concentration of 2× test concentration with the medium. 50 μL/well was added to the cells in the 96-well plate. The plate was incubated in an incubator at 37° C. and 5% CO2 for 16 hours. The medium was DMEM (High glucose) containing 10% FBS. 2) After the cell incubation, 10 μL of cell culture supernatant was transferred to a 96-well plate. 90 μL/well of QUANTI-Blue detection solution was added, and the mixture was incubated at 37° C. for 3 hours. OD620 was read using a microplate reader.
3) The EC50 of the effect of the tested compound to stimulate hTLR8 was fitted by the GraphPad software log(agonist) vs. response—Variable slope four-parameter method.

THP1-defNLRP3 cells = experiment: Agonistic effect on the expression of IL-1β in NLRP3 deficient THP1 cells (THP1-defNLRP3) after PMA-induced differentiation (HTRF); format: cell-based, human; settings: Homo sapiens, THP-1; IL-1β level, PMA-differentiated NLRP3 deficient THP1 cells, 6 hours; highest test concentration 30 μM; read-out: hNLRP3 EC50 (μM) (THP-1defNLRP3)
Text: Experimental Example 2: Agonistic Effect of the Compound of the Invention on the Expression of IL-1β in NLRP3 Deficient THP1 Cells (THP1-defNLRP3 Cells) after PMA-Induced Differentiation
In this test, a HTRF detection method was used to test the effect of the compound of the invention on the level of IL-1β in THP1-defNLRP3 cells to evaluate the specificity of the agonistic effect of the compound on hNLRP3 inflammasome or hNLRP3 inflammasome pathway.
Reagents: as described in Experimental Example 1
Cell: THP1-defNLRP3 (InvivoGen)
Kit: IL-1β assay kit (CISBIO)
1) THP1-defNLRP3 cells in a logarithmic growth phase were seeded in a T75 culture flask at a density of 5×10^5 cells/well, and cultured in a cell incubator at 37° C., 5% CO2 for 24 hours, and then 1 μM PMA was used to induce THP1-defNLRP3 suspension cells to become adherent macrophages. The medium was RPMI 1640 containing 10% heat-inactivated FBS and 0.05 mM β-mercaptoethanol.
2) The cells were induced and cultured for 24 hours. Then the adherent cells were trypsinized and centrifuged at 1000 rpm for 5 min. The supernatant was removed, and the cells were resuspended to a density of 2×10^6 cells/mL in RPMI 1640 medium containing 2% heat-inactivated FBS. 50 μL/well of the cell resuspension was taken and spread on a 96-well plate such that the number of cells in each well was 1×10^5.
3) An appropriate amount of 10 mM DMSO solution of the compound to be tested was taken and diluted to a concentration of 2× test concentration with RPMI 1640 medium containing 2% heat-inactivated FBS. 50 μL/well of the dilution was added to the cells in the 96-well plate, and mixed well. The plate was incubated in a cell incubator at 37° C., 5% CO2 for 6 hours. The supernatant was collected, and the level of IL-1β was measured in accordance with the instructions of the IL-1β detection kit.
4) EC50 was fitted by the GraphPad software log(agonist) vs. response—Variable slope four-parameter method.

SMILES: Cc1cccc(-c2cc3nc(N)cc(NCCCO)c3s2)n1 [Compound 91, 3-((5-amino-2-(6-methylpyridin-2-yl)thieno[3,2-b]pyridin-7-yl)amino)-1-propanol]
EC50 (hTLR8): > 100 µM
EC50 (THP1-defNLRP3 cells): > 30 µM

SMILES: CC[C@H](CO)Nc1cc(N)nc2cc(-c3ccn[nH]3)sc12 [Compound 95, (R)-2-((5-amino-2-(1H-pyrazol-5-yl)thieno[3,2-b]pyridin-7-yl)amino)butanol]
EC50 (hTLR8): > 100 µM
EC50 (THP1-defNLRP3 cells): > 30 µM

SMILES: CC1(O)CCN(CCNc2cc(N)nc3cc(-c4ccn[nH]4)sc23)CC1 [Compound 98, 1-(2-((5-amino-2-(1H-pyrazol-5-yl)thieno[3,2-b]pyridin-7-yl)amino)ethyl)-4-methylpiperidine-4-ol]
EC50 (hTLR8): > 100 µM
EC50 (THP1-defNLRP3 cells): > 30 µM

SMILES: COCCNc1cc(N)nc2cc(-c3ccn[nH]3)sc12 [Compound 100, N^7-(2-methoxyethyl)-2-(1H-pyrazol-5-yl)thieno[3,2-b]pyridine-5,7-diamine]
EC50 (hTLR8): > 100 µM
EC50 (THP1-defNLRP3 cells): > 30 µM

SMILES: Nc1cc(NCC2CC2)c2sc(-c3ccn[nH]3)cc2n1 [Compound 102, N^7-(cyclopropylmethyl)-2-(1H-pyrazol-5-yl)thieno[3,2-b]pyridine-5,7-diamine]
EC50 (hTLR8): > 100 µM
EC50 (THP1-defNLRP3 cells): > 30 µM

SMILES: Nc1cc(NC[C@@H]2CCCO2)c2sc(-c3ccn[nH]3)cc2n1 [Compound 105, (S)-2-(1H-pyrazol-5-yl)-N^7-((tetrahydrofuran-2-yl)methyl)thieno[3,2-b]pyridine-5,7-diamine]
EC50 (hTLR8): > 100 µM
EC50 (THP1-defNLRP3 cells): > 30 µM

SMILES: C[C@@H](CO)Nc1cc(N)nc2cc(-c3ccn[nH]3)sc12 [Compound 108, (S)-2-((5-amino-2-(1H-pyrazol-5-yl)thieno[3,2-b]pyridin-7-yl)amino)propanol]
EC50 (hTLR8): > 100 µM
EC50 (THP1-defNLRP3 cells): > 30 µM

SMILES: Nc1cc(NC2CCCC2)c2sc(-c3ccn[nH]3)cc2n1 [Compound 110, N^7-cyclopentyl-2-(1H-pyrazol-5-yl)thieno[3,2-b]pyridine-5,7-diamine]
EC50 (hTLR8): > 100 µM
EC50 (THP1-defNLRP3 cells): > 30 µM

SMILES: Nc1cc(NC2COC2)c2sc(-c3ccn[nH]3)cc2n1 [Compound 112, N^7-(oxetan-3-yl)-2-(1H-pyrazol-5-yl)thieno[3,2-b]pyridine-5,7-diamine]
EC50 (hTLR8): > 100 µM
EC50 (THP1-defNLRP3 cells): > 30 µM

SMILES: CCC(CC)Nc1cc(N)nc2cc(-c3ccn[nH]3)sc12 [Compound 113, N^7-(pent-3-yl)-2-(1H-pyrazol-5-yl)thieno[3,2-b]pyridine-5,7-diamine]
EC50 (hTLR8): > 100 µM
EC50 (THP1-defNLRP3 cells): > 30 µM

SMILES: Nc1cc(NC2CCC(O)CC2)c2sc(-c3ccn[nH]3)cc2n1 (stereo not shown) [Compound 114, 4-((5-amino-2-(1H-pyrazol-5-yl)thieno[3,2-b]pyridin-7-yl)amino)-1-cyclohexanol]
EC50 (hTLR8): > 100 µM
EC50 (THP1-defNLRP3 cells): > 30 µM

SMILES: Nc1cc(NCC(F)F)c2sc(-c3ccn[nH]3)cc2n1 [Compound 116, N^7-(2,2-difluoroethyl)-2-(1H-pyrazol-5-yl)thieno[3,2-b]pyridine-5,7-diamine]
EC50 (hTLR8): > 100 µM
EC50 (THP1-defNLRP3 cells): > 30 µM

Continued, values first:

EC50 (hTLR8): > 100 µM
EC50 (THP1-defNLRP3 cells): > 30 µM
SMILES: CC(=O)N1CCC(Nc2cc(N)nc3cc(-c4ccn[nH]4)sc23)CC1 [Compound 92, 1-(4-((5-amino-2-(1H-pyrazol-5-yl)thieno[3,2-b]pyridin-7-yl)amino)piperidin-1-yl)ethanone]

EC50 (hTLR8): > 100 µM
EC50 (THP1-defNLRP3 cells): > 30 µM
SMILES: Nc1cc(NCCCO)c2sc(-c3ccccc3)cc2n1 [Compound 93, 3-((5-amino-2-phenylthieno[3,2-b]pyridin-7-yl)amino)-1-propanol]

EC50 (hTLR8): > 100 µM
EC50 (THP1-defNLRP3 cells): > 30 µM
SMILES: Nc1cc(N[C@@H]2CCC[C@@H]2O)c2sc(-c3ccn[nH]3)cc2n1 [Compound 96, (1S,2R)-2-((5-amino-2-(1H-pyrazol-5-yl)thieno[3,2-b]pyridin-7-yl)amino)cyclopentanol]

EC50 (hTLR8): > 100 µM
EC50 (THP1-defNLRP3 cells): > 30 µM
SMILES: Nc1cc(NCC(F)(F)c2ccccn2)c2sc(-c3ccn[nH]3)cc2n1 [Compound 97, N^7-(2,2-difluoro-2-(pyridin-2-yl)ethyl)-2-(1H-pyrazol-5-yl)thieno[3,2-b]pyridine-5,7-diamine]

EC50 (hTLR8): > 100 µM
EC50 (THP1-defNLRP3 cells): > 30 µM
SMILES: CC1(O)CCN(CCCNc2cc(N)nc3cc(-c4ccn[nH]4)sc23)CC1 [Compound 99, 1-(3-((5-amino-2-(1H-pyrazol-5-yl)thieno[3,2-b]pyridin-7-yl)amino)propyl)-4-methylpiperidine-4-ol]

EC50 (hTLR8): > 100 µM
EC50 (THP1-defNLRP3 cells): > 30 µM
SMILES: CO[C@H](C)CNc1cc(N)nc2cc(-c3ccn[nH]3)sc12 [Compound 101, (R)—N^7-(2-methoxypropyl)-2-(1H-pyrazol-5-yl)thieno[3,2-b]pyridine-5,7-diamine]

EC50 (hTLR8): > 100 µM
EC50 (THP1-defNLRP3 cells): > 30 µM
SMILES: CN1CCC[C@@H](Nc2cc(N)nc3cc(-c4ccn[nH]4)sc23)C1 [Compound 104, (R)—N^7-(1-methylpiperidin-3-yl)-2-(1H-pyrazol-5-yl)thieno[3,2-b]pyridine-5,7-diamine]

EC50 (hTLR8): > 100 µM
EC50 (THP1-defNLRP3 cells): > 30 µM
SMILES: Cn1cc(CNc2cc(N)nc3cc(-c4ccn[nH]4)sc23)cn1 [Compound 106, N^7-(1-methyl-1H-pyrazol-4-yl)methyl-2-(1H-pyrazol-5-yl)thieno[3,2-b]pyridine-5,7-diamine]

EC50 (hTLR8): > 100 µM
EC50 (THP1-defNLRP3 cells): > 30 µM
SMILES: Cn1cc(-c2cc3nc(N)cc(NCCCO)c3s2)cn1 [Compound 109, 3-((5-amino-2-(1-methyl-1H-pyrazol-4-yl)thieno[3,2-b]pyridin-7-yl)amino)-1-propanol]

EC50 (hTLR8): > 100 µM
EC50 (THP1-defNLRP3 cells): > 30 µM
SMILES: COC(C)(C)CNc1cc(N)nc2cc(-c3ccn[nH]3)sc12 [Compound 111, N^7-(2′-methoxy-2′-methylpropyl)-2-(1H-pyrazol-5-yl)thieno[3,2-b]pyridine-5,7-diamine]

EC50 (hTLR8): > 100 µM
EC50 (THP1-defNLRP3 cells): > 30 µM
SMILES: CC(C)(CO)CNc1cc(N)nc2cc(-c3ccn[nH]3)sc12 [Compound 115, 3-((5-amino-2-(1H-pyrazol-5-yl)thieno[3,2-b]pyridin-7-yl)amino)-2,2-dimethyl-1-propanol]
